One data set has as its target T1, CYP1A2 (Homo sapiens, UniProt P05177).
T1 sequence (P05177 1-516): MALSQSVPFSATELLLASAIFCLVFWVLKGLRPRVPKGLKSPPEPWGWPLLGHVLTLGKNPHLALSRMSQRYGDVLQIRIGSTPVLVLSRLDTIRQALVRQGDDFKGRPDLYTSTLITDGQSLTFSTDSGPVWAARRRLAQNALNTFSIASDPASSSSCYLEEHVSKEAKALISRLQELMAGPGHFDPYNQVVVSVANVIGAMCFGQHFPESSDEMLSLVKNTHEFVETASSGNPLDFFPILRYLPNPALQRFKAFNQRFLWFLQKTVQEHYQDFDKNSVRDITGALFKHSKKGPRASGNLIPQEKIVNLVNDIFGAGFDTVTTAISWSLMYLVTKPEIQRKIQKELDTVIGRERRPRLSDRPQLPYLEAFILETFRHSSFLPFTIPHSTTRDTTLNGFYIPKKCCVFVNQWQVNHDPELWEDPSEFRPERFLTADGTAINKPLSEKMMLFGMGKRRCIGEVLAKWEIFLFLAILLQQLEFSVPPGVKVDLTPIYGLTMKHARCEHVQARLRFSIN
The data set is described as follows: CYP inhibition in human liver microsomes. The following applies: human. Background: Liver microsomes are vesicles of endoplasmic reticulum, rich in cytochrome P450 enzymes.

The target in another data set is T2, CYP2B6 (Homo sapiens, UniProt P20813).
T2 sequence (P20813 1-491): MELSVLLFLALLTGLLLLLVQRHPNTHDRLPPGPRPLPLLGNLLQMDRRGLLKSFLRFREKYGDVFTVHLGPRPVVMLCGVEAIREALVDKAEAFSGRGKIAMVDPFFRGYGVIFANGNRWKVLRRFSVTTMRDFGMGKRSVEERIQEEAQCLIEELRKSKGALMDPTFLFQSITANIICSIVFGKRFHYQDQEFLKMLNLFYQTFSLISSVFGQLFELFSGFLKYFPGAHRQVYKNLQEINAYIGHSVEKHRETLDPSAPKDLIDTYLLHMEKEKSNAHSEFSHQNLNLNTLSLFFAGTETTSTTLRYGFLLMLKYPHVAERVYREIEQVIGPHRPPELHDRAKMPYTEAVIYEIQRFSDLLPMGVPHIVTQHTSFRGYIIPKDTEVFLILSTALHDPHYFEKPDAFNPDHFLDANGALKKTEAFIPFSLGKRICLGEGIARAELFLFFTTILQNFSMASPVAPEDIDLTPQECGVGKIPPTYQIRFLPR
The data set is described as follows: CYP inhibition in human liver microsomes. The conditions noted are these: human.

The target of the next data set is T3, CYP2C8 (Homo sapiens, UniProt P10632).
T3 sequence (P10632 1-490): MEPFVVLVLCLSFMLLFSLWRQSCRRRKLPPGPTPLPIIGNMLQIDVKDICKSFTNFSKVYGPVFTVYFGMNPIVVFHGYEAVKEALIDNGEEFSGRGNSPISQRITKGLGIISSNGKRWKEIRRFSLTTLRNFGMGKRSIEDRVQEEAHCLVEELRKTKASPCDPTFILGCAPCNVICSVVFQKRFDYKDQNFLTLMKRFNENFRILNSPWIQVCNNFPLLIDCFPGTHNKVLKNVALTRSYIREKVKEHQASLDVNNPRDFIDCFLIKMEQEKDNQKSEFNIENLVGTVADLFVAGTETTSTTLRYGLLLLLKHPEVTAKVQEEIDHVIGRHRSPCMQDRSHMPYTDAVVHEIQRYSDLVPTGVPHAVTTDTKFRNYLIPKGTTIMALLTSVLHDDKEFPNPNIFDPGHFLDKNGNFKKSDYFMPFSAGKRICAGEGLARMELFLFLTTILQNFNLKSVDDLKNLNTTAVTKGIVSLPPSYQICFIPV
The data set is described as follows: CYP inhibition in human liver microsomes. The conditions noted are these: human.

A further data set deals with CYP2C9 (Homo sapiens, UniProt P11712). The data set is described as follows: CYP inhibition in human liver microsomes. The following applies: human.
CYP2C9, sequence (P11712 whole entry): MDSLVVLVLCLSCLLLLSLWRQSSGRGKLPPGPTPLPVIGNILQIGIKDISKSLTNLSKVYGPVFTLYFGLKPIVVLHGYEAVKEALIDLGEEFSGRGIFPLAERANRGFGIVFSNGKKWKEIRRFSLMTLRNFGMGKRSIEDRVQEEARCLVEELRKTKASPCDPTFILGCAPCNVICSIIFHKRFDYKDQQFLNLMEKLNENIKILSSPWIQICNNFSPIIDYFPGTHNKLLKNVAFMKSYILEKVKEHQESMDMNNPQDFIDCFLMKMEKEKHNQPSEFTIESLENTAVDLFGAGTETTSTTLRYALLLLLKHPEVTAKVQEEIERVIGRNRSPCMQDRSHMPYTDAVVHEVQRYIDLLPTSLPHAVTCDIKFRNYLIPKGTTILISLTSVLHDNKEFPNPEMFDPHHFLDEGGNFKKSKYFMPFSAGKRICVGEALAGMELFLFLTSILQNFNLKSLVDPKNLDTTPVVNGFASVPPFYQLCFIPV
In a further data set the target is CYP2C19 (Homo sapiens, UniProt P33261). The data set is described as follows: CYP inhibition in human liver microsomes. The following applies: human.
CYP2C19, sequence (P33261 whole entry): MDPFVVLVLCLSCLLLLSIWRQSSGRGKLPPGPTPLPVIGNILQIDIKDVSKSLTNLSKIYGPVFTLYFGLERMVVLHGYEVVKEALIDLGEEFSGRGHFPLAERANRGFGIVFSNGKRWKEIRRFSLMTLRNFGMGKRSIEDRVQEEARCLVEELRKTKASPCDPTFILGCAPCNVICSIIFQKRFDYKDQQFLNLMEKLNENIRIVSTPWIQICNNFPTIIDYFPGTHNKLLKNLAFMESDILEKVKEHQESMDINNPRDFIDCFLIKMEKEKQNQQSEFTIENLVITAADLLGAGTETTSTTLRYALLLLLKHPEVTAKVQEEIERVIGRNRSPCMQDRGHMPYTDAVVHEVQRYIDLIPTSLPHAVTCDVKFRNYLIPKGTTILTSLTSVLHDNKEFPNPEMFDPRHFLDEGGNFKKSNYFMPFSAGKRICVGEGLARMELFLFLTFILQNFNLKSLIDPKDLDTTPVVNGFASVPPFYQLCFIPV
Another data set has as its target CYP2D6 (Homo sapiens, UniProt P10635). The experiment in a line: CYP inhibition in human liver microsomes. The following applies: human.
For the next data set, the target named is CYP3A4 (Homo sapiens, UniProt P08684). The experiment in a line: CYP inhibition in human liver microsomes.
CYP3A4, sequence (P08684 2-503): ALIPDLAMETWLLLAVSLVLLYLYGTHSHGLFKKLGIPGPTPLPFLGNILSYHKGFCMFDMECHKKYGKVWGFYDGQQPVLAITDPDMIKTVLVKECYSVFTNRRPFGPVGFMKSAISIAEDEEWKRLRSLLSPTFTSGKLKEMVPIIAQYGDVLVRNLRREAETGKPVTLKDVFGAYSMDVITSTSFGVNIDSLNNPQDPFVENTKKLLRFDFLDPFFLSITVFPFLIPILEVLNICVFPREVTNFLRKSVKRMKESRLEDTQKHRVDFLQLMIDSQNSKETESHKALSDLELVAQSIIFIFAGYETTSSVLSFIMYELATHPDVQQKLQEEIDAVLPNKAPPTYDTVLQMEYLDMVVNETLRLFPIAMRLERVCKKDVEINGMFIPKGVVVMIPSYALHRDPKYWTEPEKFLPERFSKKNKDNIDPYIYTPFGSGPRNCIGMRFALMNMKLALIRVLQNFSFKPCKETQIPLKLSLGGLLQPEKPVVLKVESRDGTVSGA
For another data set, the target named is T4, OATP1B1 (Homo sapiens, UniProt Q9Y6L6).
T4 construct: expressed in transfected cells; host or cells: MDCK-II cells
T4 sequence (Q9Y6L6 1-691): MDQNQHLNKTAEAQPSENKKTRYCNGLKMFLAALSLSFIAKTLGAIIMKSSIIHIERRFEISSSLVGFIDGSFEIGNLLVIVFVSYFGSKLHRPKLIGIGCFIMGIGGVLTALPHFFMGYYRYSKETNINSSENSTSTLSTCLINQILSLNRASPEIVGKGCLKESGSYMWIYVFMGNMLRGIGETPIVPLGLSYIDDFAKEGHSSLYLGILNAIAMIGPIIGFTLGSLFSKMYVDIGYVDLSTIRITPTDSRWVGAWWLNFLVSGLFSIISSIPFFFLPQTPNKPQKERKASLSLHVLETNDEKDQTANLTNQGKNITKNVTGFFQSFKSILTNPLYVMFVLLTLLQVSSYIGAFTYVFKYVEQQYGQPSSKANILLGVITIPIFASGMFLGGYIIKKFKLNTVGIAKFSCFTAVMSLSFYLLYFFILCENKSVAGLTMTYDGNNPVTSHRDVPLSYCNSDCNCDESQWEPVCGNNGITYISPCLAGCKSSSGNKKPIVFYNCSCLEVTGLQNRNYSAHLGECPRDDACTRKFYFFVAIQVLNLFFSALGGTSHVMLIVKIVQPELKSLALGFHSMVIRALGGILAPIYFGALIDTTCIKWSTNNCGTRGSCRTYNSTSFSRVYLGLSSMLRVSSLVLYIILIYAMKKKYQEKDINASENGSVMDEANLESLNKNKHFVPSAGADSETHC
The experiment in a line: Transporter mediated assay (substrate/inhibitor), MDCK-II cells. In kind it is in vitro ADME. The following applies: human, polarized monolayer of MDCK-II cells expressing OATP1B1; OATP1B1, No BSA, 100 μM.

The next data set has as its target T5, OATP1B3 (Homo sapiens, UniProt Q9NPD5).
T5 construct: expressed in transfected cells; host or cells: MDCK-II cells
T5 sequence (Q9NPD5 1-702): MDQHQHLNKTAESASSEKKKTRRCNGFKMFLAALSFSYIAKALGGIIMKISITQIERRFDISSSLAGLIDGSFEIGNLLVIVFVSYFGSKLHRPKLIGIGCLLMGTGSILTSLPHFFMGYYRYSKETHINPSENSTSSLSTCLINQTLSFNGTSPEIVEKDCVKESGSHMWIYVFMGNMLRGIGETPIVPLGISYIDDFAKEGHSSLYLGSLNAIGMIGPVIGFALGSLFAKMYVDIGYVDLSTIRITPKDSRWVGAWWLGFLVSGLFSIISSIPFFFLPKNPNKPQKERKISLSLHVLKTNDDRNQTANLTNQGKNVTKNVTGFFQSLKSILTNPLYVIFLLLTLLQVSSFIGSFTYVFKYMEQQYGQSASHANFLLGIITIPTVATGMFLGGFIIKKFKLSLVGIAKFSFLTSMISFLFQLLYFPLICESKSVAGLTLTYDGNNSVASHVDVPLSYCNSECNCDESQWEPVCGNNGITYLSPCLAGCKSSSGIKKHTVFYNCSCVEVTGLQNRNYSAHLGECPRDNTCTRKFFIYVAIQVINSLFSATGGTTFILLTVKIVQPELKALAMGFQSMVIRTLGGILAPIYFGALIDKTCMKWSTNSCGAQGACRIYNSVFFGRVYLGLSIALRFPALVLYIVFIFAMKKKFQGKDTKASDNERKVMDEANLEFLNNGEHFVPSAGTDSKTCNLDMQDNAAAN
The data set is described as above. In kind it is in vitro ADME. The following applies: human, polarized monolayer of MDCK-II cells expressing OATP1B3; OATP1B3, No BSA, 100 μM.

The target in a further data set is T6, OAT3 (Homo sapiens, UniProt Q8TCC7).
T6 construct: expressed in transfected cells; host or cells: MDCK-II cells
T6 sequence (Q8TCC7 1-542): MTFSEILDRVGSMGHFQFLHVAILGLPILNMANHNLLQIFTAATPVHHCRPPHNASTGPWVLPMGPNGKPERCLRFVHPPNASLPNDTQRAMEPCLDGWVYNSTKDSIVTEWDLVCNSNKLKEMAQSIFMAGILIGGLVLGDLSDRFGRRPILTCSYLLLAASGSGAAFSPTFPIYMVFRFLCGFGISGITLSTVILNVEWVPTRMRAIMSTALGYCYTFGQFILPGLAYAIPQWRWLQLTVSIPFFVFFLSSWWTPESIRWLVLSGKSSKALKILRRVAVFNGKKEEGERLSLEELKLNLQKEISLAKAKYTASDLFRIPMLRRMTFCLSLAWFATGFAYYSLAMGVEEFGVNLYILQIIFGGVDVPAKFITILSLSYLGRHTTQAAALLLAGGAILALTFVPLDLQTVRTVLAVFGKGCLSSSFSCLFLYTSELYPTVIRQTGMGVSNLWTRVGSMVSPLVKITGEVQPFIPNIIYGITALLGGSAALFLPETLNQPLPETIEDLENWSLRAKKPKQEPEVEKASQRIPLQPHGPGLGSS
Described as above. In kind it is in vitro ADME. The conditions noted are these: human; OAT3, No BSA, 100 μM.

A further data set addresses T7, OCT2 (Homo sapiens, UniProt O15244).
T7 construct: expressed in transfected cells; host or cells: MDCK-II cells
T7 sequence (O15244 1-555): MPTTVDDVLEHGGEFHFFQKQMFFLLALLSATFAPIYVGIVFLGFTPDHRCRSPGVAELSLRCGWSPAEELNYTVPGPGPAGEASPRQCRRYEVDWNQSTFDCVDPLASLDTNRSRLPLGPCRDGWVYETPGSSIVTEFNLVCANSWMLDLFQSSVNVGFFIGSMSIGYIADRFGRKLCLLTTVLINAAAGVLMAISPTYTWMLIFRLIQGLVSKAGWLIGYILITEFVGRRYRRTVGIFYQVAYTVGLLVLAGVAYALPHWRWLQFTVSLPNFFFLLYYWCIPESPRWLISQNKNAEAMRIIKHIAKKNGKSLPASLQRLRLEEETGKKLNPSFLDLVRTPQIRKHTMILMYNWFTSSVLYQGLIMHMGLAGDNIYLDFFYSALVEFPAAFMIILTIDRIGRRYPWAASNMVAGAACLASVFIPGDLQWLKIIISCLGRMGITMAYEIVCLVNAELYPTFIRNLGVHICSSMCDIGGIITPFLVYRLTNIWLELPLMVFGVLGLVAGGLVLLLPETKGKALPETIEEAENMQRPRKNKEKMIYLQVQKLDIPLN
The description is as above. In kind it is in vitro ADME. The following applies: human, polarized monolayer of MDCK-II cells expressing OCT2; OCT2, No BSA, 1000 μM.

The next data set deals with T8, P-gp (Homo sapiens, UniProt P08183).
T8 construct: expressed in transfected cells; host or cells: MDCK-II cells
T8 sequence (P08183 whole entry): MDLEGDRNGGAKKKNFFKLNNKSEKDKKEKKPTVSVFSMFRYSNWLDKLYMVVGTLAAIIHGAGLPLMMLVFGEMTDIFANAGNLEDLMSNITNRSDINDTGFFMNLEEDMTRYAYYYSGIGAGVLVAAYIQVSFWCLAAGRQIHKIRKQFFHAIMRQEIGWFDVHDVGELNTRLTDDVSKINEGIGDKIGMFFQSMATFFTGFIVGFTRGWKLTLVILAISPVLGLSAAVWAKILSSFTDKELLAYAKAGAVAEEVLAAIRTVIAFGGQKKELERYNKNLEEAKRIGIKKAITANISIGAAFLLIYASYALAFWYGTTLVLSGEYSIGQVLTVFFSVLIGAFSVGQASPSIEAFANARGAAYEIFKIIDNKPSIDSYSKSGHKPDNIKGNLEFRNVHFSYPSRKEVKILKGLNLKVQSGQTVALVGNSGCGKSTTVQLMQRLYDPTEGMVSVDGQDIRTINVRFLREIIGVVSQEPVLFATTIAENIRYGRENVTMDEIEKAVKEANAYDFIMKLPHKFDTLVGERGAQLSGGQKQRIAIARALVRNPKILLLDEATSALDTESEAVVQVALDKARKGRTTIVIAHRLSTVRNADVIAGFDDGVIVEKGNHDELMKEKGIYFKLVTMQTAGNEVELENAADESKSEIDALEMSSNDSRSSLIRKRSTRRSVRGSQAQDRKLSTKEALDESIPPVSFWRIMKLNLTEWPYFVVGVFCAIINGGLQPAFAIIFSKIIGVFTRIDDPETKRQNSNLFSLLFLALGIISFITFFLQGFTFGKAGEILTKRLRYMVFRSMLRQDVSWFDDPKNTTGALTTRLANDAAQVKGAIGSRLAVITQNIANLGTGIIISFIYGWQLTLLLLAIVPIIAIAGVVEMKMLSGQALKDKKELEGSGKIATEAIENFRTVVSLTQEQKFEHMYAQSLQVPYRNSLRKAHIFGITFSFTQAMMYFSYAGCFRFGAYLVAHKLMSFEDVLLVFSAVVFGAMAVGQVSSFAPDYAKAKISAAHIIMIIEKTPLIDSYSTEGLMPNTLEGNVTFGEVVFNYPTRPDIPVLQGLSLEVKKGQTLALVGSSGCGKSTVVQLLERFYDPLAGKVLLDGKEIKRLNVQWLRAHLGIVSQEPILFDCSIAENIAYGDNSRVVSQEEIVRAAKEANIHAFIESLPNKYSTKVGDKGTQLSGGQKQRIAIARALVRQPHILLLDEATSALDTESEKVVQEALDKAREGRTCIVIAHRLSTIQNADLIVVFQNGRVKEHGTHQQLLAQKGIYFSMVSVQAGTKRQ
The description is as above. In kind it is in vitro ADME. The conditions noted are these: P-gp, substrate test, 0.1 µM.

Setting [1] is: CYP activity (% of Control) 3A4 (Midazolam), substrate midazolam.
[2] abbreviates: CYP activity (% of Control) 3A4 (Testosterone), substrate testosterone.

SMILES strings stand for the structures.

Usually inhibition stands for the share of the control response that was lost under treatment. The Papp A→B is how fast a substance crosses the layer from the apical side. Read a high Papp A→B as ready permeation. The Papp B→A is how fast a substance crosses the layer from the basolateral side.

CYP2D6, sequence (P10635 whole entry): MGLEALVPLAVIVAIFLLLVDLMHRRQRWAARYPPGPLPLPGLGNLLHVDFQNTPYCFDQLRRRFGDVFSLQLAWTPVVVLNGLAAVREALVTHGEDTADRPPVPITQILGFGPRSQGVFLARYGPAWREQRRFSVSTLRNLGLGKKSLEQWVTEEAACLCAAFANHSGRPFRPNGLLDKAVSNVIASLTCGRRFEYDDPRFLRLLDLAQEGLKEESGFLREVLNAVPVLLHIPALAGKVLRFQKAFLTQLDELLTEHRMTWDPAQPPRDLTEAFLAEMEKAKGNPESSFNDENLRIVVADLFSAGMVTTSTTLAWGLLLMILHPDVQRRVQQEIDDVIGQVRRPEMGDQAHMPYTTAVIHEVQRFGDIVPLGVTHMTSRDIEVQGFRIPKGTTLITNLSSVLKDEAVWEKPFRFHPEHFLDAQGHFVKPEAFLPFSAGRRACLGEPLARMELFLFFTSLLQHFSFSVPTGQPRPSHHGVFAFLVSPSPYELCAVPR
Method for OAT3: (§1) The MDCK-II cells were treated to express the transporter of interest. The transport of each probe substrate was determined by radiometric detection (Fig 1 in S1 File). […] For the uptake assay, the net transporter-mediated uptake-rate (V) of the substrate by each SLC transporter was calculated as follows: Transporter–mediatedupdaterate(pmol/min/cm^2)=(Cellularaccumulationincellsexpressingthetransporter)−(Meancellularaccumulationincontrolcells)/Surfacearea×incubationtime
(§2) Fold of activity and percent inhibition were determined as follows: Foldofactivity=(Meanuptakerate)transporterexpressingcells/(Meanuptakerate)controlcells Percentinhibition=100−100×(Transport‐mediatedupdaterate)withinhibitor/(Transport‐mediatedupdaterate)vehiclecontrol
Method for OATP1B1: as §1, §2
Method for OATP1B3: as §1, §2
Method for OCT2: as §1, §2
Method for P-gp: The MDCK-II cells were treated to express the transporter of interest.
For BCRP and P-gp, the apparent permeability Papp and Efflux Ratio (ER) were calculated [16]. Net basal (B) to apical (A) flux (B → A) of the substrate transport (pmol/min/cm^2) by BCRP or P-gp was calculated by subtracting A → B flux from B → A flux.

For the compound `C=C(C)[C@@H]1CCC2=CC(=O)C[C@@H](C)[C@]2(C)C1` [Nootkatone], the activity at 20 min, 30 µM on CYP1A2 (microsomes) is 91.3 ± 4.8%; on CYP2B6 (microsomes), 23.8 ± 2.7%; on CYP2C8 (microsomes), 78.8 ± 12.5%; on CYP2C9 (microsomes), 84.6 ± 8.5%; on CYP2C19 (microsomes), 57.3 ± 5.7%; on CYP2D6 (microsomes), 91.9 ± 8.4%. Besides, the activity at 20 min, 30 µM on CYP3A4 (setting [1]) is 84.5 ± 4%; at CYP3A4 (setting [2]), 79.4 ± 5.4%.
As to `CO[C@H]1/C=C/O[C@@]2(C)Oc3c(C)c(O)c4c(O)c(c(/C=N/N5CCN(C)CC5)c(O)c4c3C2=O)NC(=O)/C(C)=C\C=C\[C@H](C)[C@H](O)[C@@H](C)[C@@H](O)[C@@H](C)[C@H](OC(C)=O)[C@@H]1C` [Rifampicin, reference compound], the inhibition at 100 µM was found to be 98.3 ± 1.37% against OATP1B1 and 99.2 ± 0.26% on OATP1B3.
For `S=P(N1CC1)(N1CC1)N1CC1` [ThioTEPA], the activity at 20 min, 10 µM at CYP1A2 (microsomes) turned out to be 93.8 ± 4.3%; at CYP2B6 (microsomes), 52 ± 0.1%; on CYP2C8 (microsomes), 96.8 ± 4.4%; on CYP2C9 (microsomes), 92.9 ± 1.5%; on CYP2C19 (microsomes), 108 ± 4.3%; at CYP2D6 (microsomes), 90.7 ± 2%. The activity at 20 min, 10 µM at CYP3A4 (setting [1]) turned out to be 92.6 ± 2.2%; on CYP3A4 (setting [2]), 91.4 ± 1.3%.
`CCCN(CCC)S(=O)(=O)c1ccc(C(=O)O)cc1` [probenecid, reference compound]: testing at 100 µM against OAT3 gave an inhibition of 95.3 ± 0.73%.
Take `C=C[C@H]1C[N@@]2CC[C@H]1C[C@@H]2[C@@H](O)c1ccnc2ccc(OC)cc12` [quinidine, reference compound]: at OCT2, the inhibition at 1000 µM was 100 ± 0.21%. The “Vectorial Net Transport (B->A) - (A->B)” value on P-gp amounted to 0.52 ± 0.03 pmoles/min/cm^2. This compound also came in with a Papp A→B at 0.1 µM at P-gp (human, MDCK-MDR1) of 2.62 ± 0.42 ×10⁻⁶ cm/s. Besides, the Papp B→A at 0.1 µM on P-gp (human, MDCK-MDR1) amounted to 80.7 ± 4.23 ×10⁻⁶ cm/s. For the same compound, the activity at 20 min, 2 µM on CYP1A2 (human liver microsomes, probe phenacetin) was 88.3 ± 1%; on CYP2B6 (human liver microsomes, probe bupropion), 91.6 ± 2.4%; at CYP2C8 (human liver microsomes, probe paclitaxel), 71.3 ± 2.2%; at CYP2C9 (human liver microsomes, probe diclofenac), 82.7 ± 1.1%; at CYP2C19 (human liver microsomes, probe mephenytoin), 97.7 ± 2.3%; on CYP2D6 (human liver microsomes, probe bufuralol), 17.3 ± 0.2%.

(Values after publication PMC11649115, “In vitro safety evaluation of dopamine D3R antagonist, R-VK4-116, as a potential medication for the treatment of opioid use disorder” (PLOS ONE, 2024).)
